Measurements reported in patent US12084467B2, “Therapeutic compounds for HIV virus infection” (Gilead Sciences, Inc., priority 2021, dated 2024).
Converted amounts (≈) assume the structure as drawn.

Assays:
[1] = Solubility in simulated intestinal fluids (FaSSIF / FeSSIF); settings: 25 °C, thermodynamic from solid
[2] = Kinetic solubility analysis (CLND: total chemiluminescent nitrogen determination); settings: 1.0% DMSO, 24-hour incubation at ambient temperature, maximum theoretical concentration 100 μM; for pH 2 solubility: 0.1N HCl; for pH 7 solubility: 1×PBS buffer (pH 7.4)
[3] = fasted state simulated intestinal fluid (FaSSIF), fassif
[4] = fed state simulated intestinal fluid (FeSSIF), fessif

SMILES	solubility [1, 3] [µg/mL]	solubility [1, 4] [µg/mL]	pH 2 solubility [2]	pH 7 solubility [2]
CC(C)(C#Cc1ccc(-c2ccc(Cl)c3c(N(C(=O)N4CC[C@@H]4CN(CC(=O)O)C(=O)OCOP(=O)(O)O)S(C)(=O)=O)nn(CC(F)(F)F)c23)c([C@H](Cc2cc(F)cc(F)c2)NC(=O)Cn2nc(C(F)(F)F)c3c2C(F)(F)[C@@H]2C[C@H]32)n1)S(C)(=O)=O [Compound 36, N—(((R)-1-((4-chloro-7-(2-((S)-1-(2-((3bS,4aR)-5,5-difluoro-3-(trifluoromethyl)-3b,4,4a,5-tetrahydro-1H-cyclopropa[3,4]cyclopenta[1,2-c]pyrazol-1-yl)acetamido)-2-(3,5-difluorophenyl)ethyl)-6-(3-methyl-3-(methylsulfonyl)but-1-yn-1-yl)pyridin-3-yl)-1-(2,2,2-trifluoroethyl)-1H-indazol-3-yl)(methylsulfonyl)carbamoyl)azetidin-2-yl)methyl)-N-(((phosphonooxy)methoxy)carbonyl)glycine]	> 7400	> 5930	1 μM	100 μM
CC(C)(C#Cc1ccc(-c2ccc(Cl)c3c(N(C(=O)N4CCOC[C@H]4C(=O)OCOP(=O)(O)O)S(C)(=O)=O)nn(CC(F)(F)F)c23)c([C@H](Cc2cc(F)cc(F)c2)NC(=O)Cn2nc(C(F)(F)F)c3c2C(F)(F)[C@@H]2C[C@H]32)n1)S(C)(=O)=O [Compound 23, (phosphonooxy)methyl (S)-4-((4-chloro-7-(2-((S)-1-(2-((3bS,4aR)-5,5-difluoro-3-(trifluoromethyl)-3b,4,4a,5-tetrahydro-1H-cyclopropa[3,4]cyclopenta[1,2-c]pyrazol-1-yl)acetamido)-2-(3,5-difluorophenyl)ethyl)-6-(3-methyl-3-(methylsulfonyl)but-1-yn-1-yl)pyridin-3-yl)-1-(2,2,2-trifluoroethyl)-1H-indazol-3-yl)(methylsulfonyl)carbamoyl)morpholine-3-carboxylate]	377 (≈ 305 µM)	139 (≈ 113 µM)	2 μM	17 μM
CC(C)(C#Cc1ccc(-c2ccc(Cl)c3c(N(C(=O)[C@@H]4C[C@H]4C(=O)O)S(C)(=O)=O)nn(CC(F)(F)F)c23)c([C@H](Cc2cc(F)cc(F)c2)NC(=O)Cn2nc(C(F)(F)F)c3c2C(F)(F)[C@@H]2C[C@H]32)n1)S(C)(=O)=O [Compound 16, (1R,2R)-2-((4-chloro-7-(2-((S)-1-(2-((3bS,4aR)-5,5-difluoro-3-(trifluoromethyl)-3b,4,4a,5-tetrahydro-1H-cyclopropa[3,4]cyclopenta[1,2-c]pyrazol-1-yl)acetamido)-2-(3,5-difluorophenyl)ethyl)-6-(3-methyl-3-(methylsulfonyl)but-1-yn-1-yl)pyridin-3-yl)-1-(2,2,2-trifluoroethyl)-1H-indazol-3-yl)(methylsulfonyl)carbamoyl)cyclopropane-1-carboxylic acid]	21 (≈ 19.4 µM)	6 (≈ 5.55 µM)	1 μM	44 μM
CC(C)(C#Cc1ccc(-c2ccc(Cl)c3c(N(C(=O)N4CCOC[C@@H]4CN(CC(=O)O)C(=O)OCOP(=O)(O)O)S(C)(=O)=O)nn(CC(F)(F)F)c23)c([C@H](Cc2cc(F)cc(F)c2)NC(=O)Cn2nc(C(F)(F)F)c3c2C(F)(F)[C@@H]2C[C@H]32)n1)S(C)(=O)=O [Compound 37, N—(((S)-4-((4-chloro-7-(2-((S)-1-(2-((3bS,4aR)-5,5-difluoro-3-(trifluoromethyl)-3b,4,4a,5-tetrahydro-1H-cyclopropa[3,4]cyclopenta[1,2-c]pyrazol-1-yl)acetamido)-2-(3,5-difluorophenyl)ethyl)-6-(3-methyl-3-(methylsulfonyl)but-1-yn-1-yl)pyridin-3-yl)-1-(2,2,2-trifluoroethyl)-1H-indazol-3-yl)(methylsulfonyl)carbamoyl)morpholin-3-yl)methyl)-N-(((phosphonooxy)methoxy)carbonyl)glycine]	6200 (≈ 4690 µM)	> 8370	2 μM	100 μM
CC(C)(C#Cc1ccc(-c2ccc(Cl)c3c(N(C(=O)[C@@H]4C[C@H](C(=O)O)C[C@H](C(=O)O)C4)S(C)(=O)=O)nn(CC(F)(F)F)c23)c([C@H](Cc2cc(F)cc(F)c2)NC(=O)Cn2nc(C(F)(F)F)c3c2C(F)(F)[C@@H]2C[C@H]32)n1)S(C)(=O)=O [Compound 15, (1R,3S,5r)-5-((4-chloro-7-(2-((S)-1-(2-((3bS,4aR)-5,5-difluoro-3-(trifluoromethyl)-3b,4,4a,5-tetrahydro-1H-cyclopropa[3,4]cyclopenta[1,2-c]pyrazol-1-yl)acetamido)-2-(3,5-difluorophenyl)ethyl)-6-(3-methyl-3-(methylsulfonyl)but-1-yn-1-yl)pyridin-3-yl)-1-(2,2,2-trifluoroethyl)-1H-indazol-3-yl)(methylsulfonyl)carbamoyl)cyclohexane-1,3-dicarboxylic acid]	253 (≈ 217 µM)	38 (≈ 32.6 µM)	1/1 μM	1/1 μM
CC(C)(C#Cc1ccc(-c2ccc(Cl)c3c(N(C(=O)[C@@H]4C[C@@H]4COP(=O)(O)O)S(C)(=O)=O)nn(CC(F)(F)F)c23)c([C@H](Cc2cc(F)cc(F)c2)NC(=O)Cn2nc(C(F)(F)F)c3c2C(F)(F)[C@@H]2C[C@H]32)n1)S(C)(=O)=O [Compound 11]	401 (≈ 350 µM)	355 (≈ 310 µM)	1 μM	61 μM
CC(C)(C#Cc1ccc(-c2ccc(Cl)c3c(N(C(=O)N4CCC[C@H]4COP(=O)(O)O)S(C)(=O)=O)nn(CC(F)(F)F)c23)c([C@H](Cc2cc(F)cc(F)c2)NC(=O)Cn2nc(C(F)(F)F)c3c2C(F)(F)[C@@H]2C[C@H]32)n1)S(C)(=O)=O [Compound 29, ((S)-1-((4-chloro-7-(2-((S)-1-(2-((3bS,4aR)-5,5-difluoro-3-(trifluoromethyl)-3b,4,4a,5-tetrahydro-1H-cyclopropa[3,4]cyclopenta[1,2-c]pyrazol-1-yl)acetamido)-2-(3,5-difluorophenyl)ethyl)-6-(3-methyl-3-(methylsulfonyl)but-1-yn-1-yl)pyridin-3-yl)-1-(2,2,2-trifluoroethyl)-1H-indazol-3-yl)(methylsulfonyl)carbamoyl)pyrrolidin-2-yl)methyl dihydrogen phosphate]	802	536	1 μM	98 μM
CC(C)(C#Cc1ccc(-c2ccc(Cl)c3c(N(C(=O)N4CCC[C@H]4CNC(=O)OCOP(=O)(O)O)S(C)(=O)=O)nn(CC(F)(F)F)c23)c([C@H](Cc2cc(F)cc(F)c2)NC(=O)Cn2nc(C(F)(F)F)c3c2C(F)(F)[C@@H]2C[C@H]32)n1)S(C)(=O)=O [Compound 32, (phosphonooxy)methyl (((S)-1-((4-chloro-7-(2-((S)-1-(2-((3bS,4aR)-5,5-difluoro-3-(trifluoromethyl)-3b,4,4a,5-tetrahydro-1H-cyclopropa[3,4]cyclopenta[1,2-c]pyrazol-1-yl)acetamido)-2-(3,5-difluorophenyl)ethyl)-6-(3-methyl-3-(methylsulfonyl)but-1-yn-1-yl)pyridin-3-yl)-1-(2,2,2-trifluoroethyl)-1H-indazol-3-yl)(methylsulfonyl)carbamoyl)pyrrolidin-2-yl)methyl)carbamate]	478 (≈ 383 µM)	306 (≈ 245 µM)	1 μM	100 μM
CC(C)(C#Cc1ccc(-c2ccc(Cl)c3c(N(C(=O)N4CCC[C@H]4CN(CCC(=O)O)C(=O)OCOP(=O)(O)O)S(C)(=O)=O)nn(CC(F)(F)F)c23)c([C@H](Cc2cc(F)cc(F)c2)NC(=O)Cn2nc(C(F)(F)F)c3c2C(F)(F)[C@@H]2C[C@H]32)n1)S(C)(=O)=O [Compound 34, 3-((((S)-1-((4-chloro-7-(2-((S)-1-(2-((3bS,4aR)-5,5-difluoro-3-(trifluoromethyl)-3b,4,4a,5-tetrahydro-1H-cyclopropa[3,4]cyclopenta[1,2-c]pyrazol-1-yl)acetamido)-2-(3,5-difluorophenyl)ethyl)-6-(3-methyl-3-(methylsulfonyl)but-1-yn-1-yl)pyridin-3-yl)-1-(2,2,2-trifluoroethyl)-1H-indazol-3-yl)(methylsulfonyl)carbamoyl)pyrrolidin-2-yl)methyl)(((phosphonooxy)methoxy)carbonyl)amino)propanoic acid]	861 (≈ 652 µM)	1710 (≈ 1290 µM)	1 μM	100 μM
CC(C)(C#Cc1ccc(-c2ccc(Cl)c3c(N(C(=O)[C@H]4C[C@H](NC(=N)N)C4)S(C)(=O)=O)nn(CC(F)(F)F)c23)c([C@H](Cc2cc(F)cc(F)c2)NC(=O)Cn2nc(C(F)(F)F)c3c2C(F)(F)[C@@H]2C[C@H]32)n1)S(C)(=O)=O [Compound 9, trans-N-(4-chloro-7-(2-((S)-1-(2-((3bS,4aR)-5,5-difluoro-3-(trifluoromethyl)-3b,4,4a,5-tetrahydro-1H-cyclopropa[3,4]cyclopenta[1,2-c]pyrazol-1-yl)acetamido)-2-(3,5-difluorophenyl)ethyl)-6-(3-methyl-3-(methylsulfonyl)but-1-yn-1-yl)pyridin-3-yl)-1-(2,2,2-trifluoroethyl)-1H-indazol-3-yl)-3-guanidino-N-(methylsulfonyl)cyclobutane-1-carboxamide]	17 (≈ 15.4 µM)	83 (≈ 74.9 µM)	9 μM	2 μM
